Measurements from publication PMC3731163 (MedChemComm, 2013).
Like-named read-outs stand apart in the source and are kept apart here.

Experiments:
[1] = tested on: H37Rv Mtb; test: Whole cell antitubercular activity; assay type: cell-based, Mycobacterium tuberculosis
[2] = biological target: T1, Mtb Dxr (Mycobacterium tuberculosis, UniProt P9WNS1); conditions: see also Supplementary Figure 1; cited from earlier work
[3] = tested on: H37Rv Mtb; conditions: cited from earlier work
[4] = biological target: T1, Mtb Dxr; test: Classical competition experiments; assay type: biochemical; conditions: double reciprocal plots

T1 sequence (P9WNS1 whole entry): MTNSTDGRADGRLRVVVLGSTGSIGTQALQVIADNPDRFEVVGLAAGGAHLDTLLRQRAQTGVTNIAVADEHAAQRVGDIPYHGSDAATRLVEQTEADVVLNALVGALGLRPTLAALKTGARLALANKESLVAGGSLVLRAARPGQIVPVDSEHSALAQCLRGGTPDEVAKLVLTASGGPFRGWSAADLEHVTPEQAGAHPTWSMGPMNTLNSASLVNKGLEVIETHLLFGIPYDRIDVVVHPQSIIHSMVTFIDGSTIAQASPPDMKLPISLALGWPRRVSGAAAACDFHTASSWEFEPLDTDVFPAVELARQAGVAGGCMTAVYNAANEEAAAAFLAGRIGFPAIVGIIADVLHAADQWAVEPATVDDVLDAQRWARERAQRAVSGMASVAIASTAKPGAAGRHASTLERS

SMILES	inhibition of Mtb growth (in words) [1]	mode of inhibition with respect to DXP [2]	other results
CCOP(=O)(CCCN(O)C(=O)CCCc1ccccc1)OCC [18b]	display measurable antitubercular activity		inhibition of Mtb growth (in words) ([1]; listed as diethyl ester of 8): inhibits Mtb growth
O=CN(O)CCCP(=O)(O)O [Compound 1, Fosmidomycin]	do not inhibit Mtb	competitive	activity against Mtb (in words) [3]: inactive
CC(=O)N(O)CCCP(=O)([O-])O.[Na+] [Compound 2, FR900098]	do not inhibit Mtb	competitive	mode of inhibition relative to NADPH [2]: uncompetitive
O=C(CCCc1ccccc1)N(O)CCCP(=O)([O-])O.[Na+] [Compound 8]	do not inhibit Mtb		mode of inhibition with respect to DXP [4]: competitive; mode of inhibition with respect to NADPH [4]: noncompetitive
CCOP(=O)(CCCN(O)C=O)OCC [Diethyl-1]	display measurable antitubercular activity		
